Measured values published in US9120791B2, “Indolizine compounds, a process for their preparation and pharmaceutical compositions containing them” (LES LABORATOIRES SERVIER, priority 2012, dated 2015).
Counter-ions that a name gives are not always drawn.

How the values were obtained:
[1] = molecular target: Bcl-2 protein (Homo sapiens (Human), UniProt P10415); assay: Inhibition of Bcl-2 by the fluorescence polarisation technique; type: binding; conditions: fluorescence polarisation test; concentration that inhibits fluorescence polarisation by 50%; read-out: IC50 (nM) Bcl-2 FP
Method: The fluorescence polarisation tests were carried out on microplates (384 wells). […] After incubation for 2 hours, the fluorescence polarisation is measured.

[2] = tested on: RS4;11 leukaemia tumour line; assay: In vitro cytotoxicity (Microculture Tetrazolium Assay, 48 hours); type: cell-based; conditions: Homo sapiens, RS4;11 cells, 48 hours exposure, MTT, concentration that inhibits cell viability by 50%, read-out: IC50 (nM) MTT RS4
Method: The cytotoxicity studies were carried out on the RS4;11 leukaemia tumour line.
The cells are distributed onto microplates and exposed to the test compounds for 48 hours.

Sequence of Bcl-2 protein (P10415 whole entry): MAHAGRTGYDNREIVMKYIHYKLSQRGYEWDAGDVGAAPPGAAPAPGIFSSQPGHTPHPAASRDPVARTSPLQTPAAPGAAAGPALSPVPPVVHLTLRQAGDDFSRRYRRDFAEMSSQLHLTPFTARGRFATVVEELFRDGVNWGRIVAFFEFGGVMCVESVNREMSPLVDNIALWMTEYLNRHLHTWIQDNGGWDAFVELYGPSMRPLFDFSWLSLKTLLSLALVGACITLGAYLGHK

## O=C(c1cc(-c2cc(Cl)ccc2C(=O)N2Cc3ccccc3C[C@H]2CN2CCOCC2)n2c1CCCC2)N(c1ccc(O)cc1)c1ccc2c(c1)CCN2 [Example 21, 3-{5-Chloro-2-[((3S)-3-(4-morpholinylmethyl)-3,4-dihydro-2(1H)-isoquinolinyl)carbonyl]phenyl}-N-(2,3-dihydro-1H-indol-5-yl)-N-(4-hydroxyphenyl)-5,6,7,8-tetrahydro-1-indolizine carboxamide bis(hydrochloride)]
[1]
  IC50: 22 nM
[2]
  IC50: 34.6 nM

## Cn1ccc2cc(N(C(=O)c3cc(-c4cc5c(cc4C(=O)N4Cc6ccccc6C[C@H]4CN4CCOCC4)OCCCO5)n4c3CCCC4)c3ccc(O)cc3)ccc21 [Example 32, N-(4-Hydroxyphenyl)-N-(1-methyl-1H-indol-5-yl)-3-{8-[((3S)-3-(4-morpholinylmethyl)-3,4-dihydro-2(1H)-isoquinolinyl)carbonyl]-3,4-dihydro-2H-1,5-benzodioxepin-7-yl}-5,6,7,8-tetrahydro-1-indolizine carboxamide hydrochloride]
[1]
  IC50: 34 nM
[2]
  IC50: 71.3 nM

## Cc1ccc(N(C(=O)c2cc(-c3cc(Cl)ccc3C(=O)N3Cc4ccccc4C[C@H]3CN3CCOCC3)n3c2CCCC3)c2ccc(O)cc2)cc1Cl [Example 97, N-(3-Chloro-4-methylphenyl)-3-(5-chloro-2-{[(3S)-3-(morpholin-4-ylmethyl)-3,4-dihydroisoquinolin-2(1H)-yl]carbonyl}phenyl)-N-(4-hydroxyphenyl)-5,6,7,8-tetrahydroindolizine-1-carboxamide hydrochloride]
[1]
  IC50: 20 nM
[2]
  IC50: 45.4 nM

## COc1ccc(C(=O)N2Cc3ccccc3C[C@H]2CN2CCOCC2)c(-c2cc(C(=O)N(c3ccc(O)cc3)c3ccc(C)c(F)c3)c3n2CCCC3)c1 [Example 114, N-(3-Fluoro-4-methylphenyl)-N-(4-hydroxyphenyl)-3-(5-methoxy-2-{[(3S)-3-(morpholin-4-ylmethyl)-3,4-dihydroisoquinolin-2(1H)-yl]carbonyl}phenyl)-5,6,7,8-tetrahydroindolizine-1-carboxamide hydrochloride]
[1]
  IC50: 9 nM
[2]
  IC50: 43.1 nM

## CN1CCOc2cc(N(C(=O)c3cc(-c4cc(Cl)ccc4C(=O)N4Cc5ccccc5C[C@H]4CN4CCOCC4)n4c3CCCC4)c3ccc(O)cc3)ccc21 [Example 27, 3-{5-Chloro-2-[((3S)-3-(4-morpholinylmethyl)-3,4-dihydro-2(1H)-isoquinolinyl)carbonyl]phenyl}-N-(4-hydroxyphenyl)-N-(4-methyl-3,4-dihydro-2H-1,4-benzoxazin-7-yl)-5,6,7,8-tetrahydro-1-indolizine carboxamide hydrochloride]
[1]
  IC50: 17 nM
[2]
  IC50: 35.4 nM

## CN1CCOc2cc(N(C(=O)c3cc(-c4cc5c(cc4C(=O)N4Cc6ccccc6C[C@H]4CN4CCOCC4)OCCO5)n4c3CCCC4)c3ccc(O)cc3)ccc21 [Example 41, N-(4-Hydroxyphenyl)-N-(4-methyl-3,4-dihydro-2H-1,4-benzoxazin-7-yl)-3-{7-[((3S)-3-(4-morpholinylmethyl)-3,4-dihydro-2(1H)-isoquinolinyl)carbonyl]-2,3-dihydro-1,4-benzodioxin-6-yl}-5,6,7,8-tetrahydro-1-indolizine carboxamide hydrochloride]
[1]
  IC50: 26 nM
[2]
  IC50: 44 nM

## CC(C)N1CCc2cc(N(C(=O)c3cc(-c4cc5c(cc4C(=O)N4Cc6ccccc6C[C@H]4CN4CCOCC4)OCO5)n4ccccc34)c3ccc(O)cc3)ccc21 [Example 64, N-(4-Hydroxyphenyl)-N-(1-isopropyl-2,3-dihydro-1H-indol-5-yl)-3-{6-[((3S)-3-(4-morpholinylmethyl)-3,4-dihydro-2(1H)-isoquinolinyl)carbonyl]-1,3-benzodioxol-5-yl}-1-indolizine carboxamide hydrochloride]
[1]
  IC50: 31 nM
[2]
  IC50: 23.3 nM

## CN1CCN(C[C@@H]2Cc3ccccc3CN2C(=O)c2cc3c(cc2-c2cc(C(=O)N(c4ccc(O)cc4)c4ccc5c(ccn5C)c4)c4ccccn24)OCO3)CC1 [Example 57, N-(4-Hydroxyphenyl)-N-(1-methyl-1H-indol-5-yl)-3-{6-[((3S)-3-[(4-methyl-1-piperazinyl)methyl]-3,4-dihydro-2(1H)-isoquinolinyl)carbonyl]-1,3-benzodioxol-5-yl}-1-indolizine carboxamide bis(hydrochloride)]
[1]
  IC50: 12 nM
[2]
  IC50: 8.62 nM

## Cn1ccc2cc(N(C(=O)c3cc(-c4cc(F)ccc4C(=O)N4Cc5ccccc5C[C@H]4CN4CCOCC4)n4c3CCCC4)c3ccc(O)cc3)ccc21 [Example 24, 3-{5-Fluoro-2-[((3S)-3-(4-morpholinylmethyl)-3,4-dihydro-2(1H)-isoquinolinyl)carbonyl]phenyl}-N-(4-hydroxyphenyl)-N-(1-methyl-1H-indol-5-yl)-5,6,7,8-tetrahydro-1-indolizine carboxamide hydrochloride]
[1]
  IC50: 17 nM
[2]
  IC50: 29.8 nM

## O=C(c1cc(-c2cc(Cl)ccc2C(=O)N2Cc3ccccc3C[C@H]2CN2CCOCC2)n2c1CCCC2)N(c1ccc(O)cc1)c1ccc(F)cc1 [Example 111, 3-(5-Chloro-2-{[(3S)-3-(morpholin-4-ylmethyl)-3,4-dihydroisoquinolin-2(1H)-yl]carbonyl}phenyl)-N-(4-fluorophenyl)-N-(4-hydroxyphenyl)-5,6,7,8-tetrahydroindolizine-1-carboxamide hydrochloride]
[1]
  IC50: 15 nM
[2]
  IC50: 81.5 nM

## Cn1ccc2cc(N(C(=O)c3cc(-c4cc(Cl)ccc4C(=O)N4Cc5ccccc5C[C@H]4CN4CCOCC4)n4c3CCCC4)c3ccc(O)c(F)c3)ccc21 [Example 55, 3-{5-Chloro-2-[((3S)-3-(4-morpholinylmethyl)-3,4-dihydro-2(1H)-isoquinolinyl)carbonyl]phenyl}-N-(3-fluoro-4-hydroxyphenyl)-N-(1-methyl-1H-indol-5-yl)-5,6,7,8-tetrahydro-1-indolizine carboxamide hydrochloride]
[1]
  IC50: 34 nM
[2]
  IC50: 19.4 nM

## Cn1ccc2cc(N(C(=O)c3cc(-c4cc5c(cc4C(=O)N4Cc6ccccc6C[C@H]4CN4CCOCC4)OCO5)n4c3CCC4)c3ccc(O)cc3)ccc21 [Example 96, N-(4-Hydroxyphenyl)-N-(1-methyl-1H-indol-5-yl)-5-(6-{[(3S)-3-(morpholin-4-ylmethyl)-3,4-dihydroisoquinolin-2(1H)-yl]carbonyl}-1,3-benzodioxol-5-yl)-2,3-dihydro-1H-pyrrolizine-7-carboxamide hydrochloride]
[1]
  IC50: 11 nM
[2]
  IC50: 58.8 nM

## Cc1ccc(N(C(=O)c2cc(-c3cc(F)ccc3C(=O)N3Cc4ccccc4C[C@H]3CN3CCOCC3)n3c2CCCC3)c2ccc(O)cc2)cc1F [Example 91, N-(3-Fluoro-4-methylphenyl)-3-(5-fluoro-2-{[(3S)-3-(morpholin-4-ylmethyl)-3,4-dihydroisoquinolin-2(1H)-yl]carbonyl}phenyl)-N-(4-hydroxyphenyl)-5,6,7,8-tetrahydroindolizine-1-carboxamide hydrochloride]
[1]
  IC50: 8 nM
[2]
  IC50: 65.5 nM

## Cn1ccc2cc(N(C(=O)c3cc(-c4cc5c(cc4C(=O)N4Cc6ccccc6C[C@H]4CN4CCOCC4)OCO5)n4c3CNCC4)c3ccc(O)cc3)ccc21 [Example 74, N-(4-Hydroxyphenyl)-N-(1-methyl-1H-indol-5-yl)-6-{6-[((3S)-3-(4-morpholinylmethyl)-3,4-dihydro-2(1H)-isoquinolinyl)carbonyl]-1,3-benzodioxol-5-yl}-1,2,3,4-tetrahydropyrrolo[1,2-a]pyrazine-8-carboxamide bis(hydrochloride)]
[1]
  IC50: 24 nM
[2]
  IC50: 241 nM

## Cn1ccc2cc(N(C(=O)c3cc(-c4cc5c(cc4C(=O)N4Cc6ccccc6C[C@H]4CN4CCCOCC4)OCO5)n4c3CCCC4)c3ccc(O)cc3)ccc21 [Example 14, N-(4-Hydroxyphenyl)-N-(1-methyl-1H-indol-5-yl)-3-{6-[((3S)-3-(1,4-oxazepan-4-ylmethyl)-3,4-dihydro-2(1H)-isoquinolinyl)carbonyl]-1,3-benzodioxol-5-yl}-5,6,7,8-tetrahydro-1-indolizine carboxamide hydrochloride]
[1]
  IC50: 16 nM
[2]
  IC50: 10.7 nM

## CN1CCCc2cc(N(C(=O)c3cc(-c4cc5c(cc4C(=O)N4Cc6ccccc6C[C@H]4CN4CCOCC4)OCCO5)n4c3CCCC4)c3ccc(O)cc3)ccc21 [Example 40, N-(4-Hydroxyphenyl)-N-(1-methyl-1,2,3,4-tetrahydro-6-quinolinyl)-3-{7-[((3S)-3-(4-morpholinylmethyl)-3,4-dihydro-2(1H)-isoquinolinyl)carbonyl]-2,3-dihydro-1,4-benzodioxin-6-yl}-5,6,7,8-tetrahydro-1-indolizine carboxamide hydrochloride]
[1]
  IC50: 15 nM
[2]
  IC50: 32.2 nM

## COCCN1CCN(C[C@@H]2Cc3ccccc3CN2C(=O)c2cc3c(cc2-c2cc(C(=O)N(c4ccccc4)c4ccc(O)cc4)c4n2CCCC4)OCO3)CC1 [Example 105, N-(4-Hydroxyphenyl)-3-(6-{[(3S)-3-{[4-(2-methoxyethyl)piperazin-1-yl]methyl}-3,4-dihydroisoquinolin-2(1H)-yl]carbonyl}-1,3-benzodioxol-5-yl)-N-phenyl-5,6,7,8-tetrahydroindolizine-1-carboxamide bis(hydrochloride)]
[1]
  IC50: 10 nM
[2]
  IC50: 28.9 nM

## CC(C)n1ccc2cc(N(C(=O)c3cc(-c4cc5c(cc4C(=O)N4Cc6ccccc6C[C@H]4CN4CCOCC4)OCO5)n4ccccc34)c3ccc(O)cc3)ccc21 [Example 62, N-(4-Hydroxyphenyl)-N-(1-isopropyl-1H-indol-5-yl)-3-{6-[((3S)-3-(4-morpholinylmethyl)-3,4-dihydro-2(1H)-isoquinolinyl)carbonyl]-1,3-benzodioxol-5-yl}-1-indolizine carboxamide hydrochloride]
[1]
  IC50: 22 nM
[2]
  IC50: 19.3 nM
